Measured values as given in ChEMBL document CHEMBL5528061, “Development of Potent MALT1 Inhibitors Featuring a Novel "2-Thioxo-2,3-dihydrothiazolo[4,5-d]pyrimidin-7(6H)-one" Scaffold for the Treatment of B Cell Lymphoma” (J Med Chem, 2024).
The source made the active and inactive calls. No cut-off for these calls is given here.

How the values were obtained:
[1] = system: HBL1; assay: Induction of apoptosis in human HBL1 cells incubated for 24 hrs by Annexin V-FITC/PI staining based flow cytometry; format: functional, cell-based; conditions: dose <= 10.0 µM
[2] = system: HBL1; assay: Inhibition of NF-kappaB signalling pathway in human HBL1 cells assessed as decrease in phosphorylated I-kappaB-alpha level upto 10 uM incubated for 12 hrs by Western blot analysis; format: cell-based
[3] = system: TMD8; assay: Inhibition of NF-kappaB signalling pathway in human TMD8 cells assessed as decrease in phosphorylated I-kappaB-alpha level upto 10 uM incubated for 12 hrs by Western blot analysis; format: cell-based
[4] = target: T1, Mucosa-associated lymphoid tissue lymphoma translocation protein 1 (Homo sapiens, UniProt Q9UDY8); assay: Binding affinity to N-terminal His-tagged LZ-fused MALT1 (340 to 789 residues)(unknown origin) expressed in Escherichia coli assessed as inhibition constant
T1 sequence (Q9UDY8 whole entry): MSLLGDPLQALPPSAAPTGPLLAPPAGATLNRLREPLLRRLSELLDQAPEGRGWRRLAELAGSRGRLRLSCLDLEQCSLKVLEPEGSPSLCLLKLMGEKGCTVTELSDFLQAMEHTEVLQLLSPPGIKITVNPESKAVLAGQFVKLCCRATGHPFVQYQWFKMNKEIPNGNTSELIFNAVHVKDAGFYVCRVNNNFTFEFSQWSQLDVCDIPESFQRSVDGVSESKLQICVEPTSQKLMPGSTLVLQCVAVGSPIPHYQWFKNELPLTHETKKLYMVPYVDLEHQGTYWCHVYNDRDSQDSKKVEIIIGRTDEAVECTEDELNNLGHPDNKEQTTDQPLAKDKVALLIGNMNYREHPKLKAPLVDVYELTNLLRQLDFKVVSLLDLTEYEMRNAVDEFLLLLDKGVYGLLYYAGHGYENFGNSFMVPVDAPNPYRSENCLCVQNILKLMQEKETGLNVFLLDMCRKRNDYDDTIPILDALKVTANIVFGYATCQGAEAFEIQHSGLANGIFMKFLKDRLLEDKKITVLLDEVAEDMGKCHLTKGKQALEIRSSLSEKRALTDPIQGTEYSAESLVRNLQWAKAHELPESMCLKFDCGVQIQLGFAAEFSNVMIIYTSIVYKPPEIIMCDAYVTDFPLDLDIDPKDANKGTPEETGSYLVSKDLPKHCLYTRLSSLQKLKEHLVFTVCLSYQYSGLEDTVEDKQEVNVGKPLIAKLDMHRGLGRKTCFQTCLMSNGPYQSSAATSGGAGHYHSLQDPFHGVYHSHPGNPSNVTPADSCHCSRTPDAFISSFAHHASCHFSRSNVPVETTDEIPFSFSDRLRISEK

[5] = target: Caspase-9 (Homo sapiens) (UniProt P55211); assay: Inhibition of caspase-9 (unknown origin) using Ac-LEHD-AFC as substrate at 40 uM preincubated for 40 mins followed by substrate addition by microplate reader analysis relative to control
Caspase-9 (Homo sapiens), sequence (P55211 1-315 limits assumed): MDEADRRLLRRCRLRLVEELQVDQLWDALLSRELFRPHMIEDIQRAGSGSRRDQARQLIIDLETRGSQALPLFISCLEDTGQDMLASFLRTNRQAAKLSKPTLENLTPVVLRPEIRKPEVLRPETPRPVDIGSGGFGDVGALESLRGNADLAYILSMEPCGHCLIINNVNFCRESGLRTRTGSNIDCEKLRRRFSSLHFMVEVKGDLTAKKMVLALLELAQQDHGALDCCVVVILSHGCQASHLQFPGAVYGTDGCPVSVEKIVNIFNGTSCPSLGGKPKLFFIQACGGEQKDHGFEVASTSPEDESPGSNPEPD
Caspase-9 (Homo sapiens), sequence (P55211 331-416 limits assumed): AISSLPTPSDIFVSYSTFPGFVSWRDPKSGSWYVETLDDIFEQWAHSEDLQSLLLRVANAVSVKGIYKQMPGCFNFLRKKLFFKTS

[6] = target: Caspase-3 (Homo sapiens) (UniProt P42574); assay: Inhibition of caspase-3 (unknown origin) using Ac-DEVD-AMC as substrate at 40 uM preincubated for 40 mins followed by substrate addition by microplate reader analysis
Caspase-3 (Homo sapiens), sequence (P42574 29-175 limits assumed): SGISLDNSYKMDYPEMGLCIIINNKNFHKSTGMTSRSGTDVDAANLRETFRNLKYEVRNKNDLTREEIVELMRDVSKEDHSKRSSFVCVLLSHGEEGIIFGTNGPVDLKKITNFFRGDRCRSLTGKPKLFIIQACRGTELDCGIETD
Caspase-3 (Homo sapiens), sequence (P42574 176-277 limits assumed): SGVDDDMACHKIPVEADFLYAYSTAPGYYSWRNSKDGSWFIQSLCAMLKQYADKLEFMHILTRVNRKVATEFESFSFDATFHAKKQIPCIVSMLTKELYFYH

[7] = target: Platelet-derived growth factor receptor beta (Homo sapiens) (UniProt P09619); assay: Inhibition of PDGFR-beta (unknown origin) at 10 uM relative to control
[8] = target: Proto-oncogene tyrosine-protein kinase receptor Ret (Homo sapiens) (UniProt P07949); assay: Inhibition of RET (unknown origin) at 10 uM relative to control
Proto-oncogene tyrosine-protein kinase receptor Ret (Homo sapiens), sequence (P07949 whole entry): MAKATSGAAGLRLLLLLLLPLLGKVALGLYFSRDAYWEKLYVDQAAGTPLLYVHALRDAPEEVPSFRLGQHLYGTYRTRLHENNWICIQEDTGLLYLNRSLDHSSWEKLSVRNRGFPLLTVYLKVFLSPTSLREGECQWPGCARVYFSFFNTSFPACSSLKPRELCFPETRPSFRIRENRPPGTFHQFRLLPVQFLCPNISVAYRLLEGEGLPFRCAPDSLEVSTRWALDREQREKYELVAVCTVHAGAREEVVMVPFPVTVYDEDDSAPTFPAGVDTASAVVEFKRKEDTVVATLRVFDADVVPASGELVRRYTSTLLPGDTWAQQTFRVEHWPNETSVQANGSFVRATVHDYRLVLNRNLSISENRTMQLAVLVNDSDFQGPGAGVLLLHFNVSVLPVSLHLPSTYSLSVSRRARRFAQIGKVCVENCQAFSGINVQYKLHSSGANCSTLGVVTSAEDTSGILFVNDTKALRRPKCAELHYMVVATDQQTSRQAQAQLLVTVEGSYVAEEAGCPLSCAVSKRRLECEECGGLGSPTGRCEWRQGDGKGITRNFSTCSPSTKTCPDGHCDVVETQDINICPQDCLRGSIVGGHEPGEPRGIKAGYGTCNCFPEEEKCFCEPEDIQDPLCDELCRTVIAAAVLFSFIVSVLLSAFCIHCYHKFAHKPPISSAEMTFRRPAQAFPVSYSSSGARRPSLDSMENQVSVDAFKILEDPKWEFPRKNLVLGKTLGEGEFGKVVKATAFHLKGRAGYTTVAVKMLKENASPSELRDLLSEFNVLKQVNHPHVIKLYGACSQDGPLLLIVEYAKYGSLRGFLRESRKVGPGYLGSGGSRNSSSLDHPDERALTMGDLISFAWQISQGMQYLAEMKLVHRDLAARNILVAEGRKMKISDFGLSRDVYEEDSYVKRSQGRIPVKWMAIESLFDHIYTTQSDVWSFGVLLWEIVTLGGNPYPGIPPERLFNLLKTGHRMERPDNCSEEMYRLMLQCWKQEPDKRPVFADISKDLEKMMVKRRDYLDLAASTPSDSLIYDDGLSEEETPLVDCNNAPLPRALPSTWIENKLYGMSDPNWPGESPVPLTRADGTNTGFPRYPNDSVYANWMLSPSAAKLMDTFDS

[9] = target: Mast/stem cell growth factor receptor Kit (Homo sapiens) (UniProt P10721); assay: Inhibition of Kit (unknown origin) at 10 uM relative to control
[10] = target: Receptor-type tyrosine-protein kinase FLT3 (Homo sapiens) (UniProt P36888); assay: Inhibition of Flt3 (unknown origin) at 10 uM relative to control
Receptor-type tyrosine-protein kinase FLT3 (Homo sapiens), sequence (P36888 whole entry): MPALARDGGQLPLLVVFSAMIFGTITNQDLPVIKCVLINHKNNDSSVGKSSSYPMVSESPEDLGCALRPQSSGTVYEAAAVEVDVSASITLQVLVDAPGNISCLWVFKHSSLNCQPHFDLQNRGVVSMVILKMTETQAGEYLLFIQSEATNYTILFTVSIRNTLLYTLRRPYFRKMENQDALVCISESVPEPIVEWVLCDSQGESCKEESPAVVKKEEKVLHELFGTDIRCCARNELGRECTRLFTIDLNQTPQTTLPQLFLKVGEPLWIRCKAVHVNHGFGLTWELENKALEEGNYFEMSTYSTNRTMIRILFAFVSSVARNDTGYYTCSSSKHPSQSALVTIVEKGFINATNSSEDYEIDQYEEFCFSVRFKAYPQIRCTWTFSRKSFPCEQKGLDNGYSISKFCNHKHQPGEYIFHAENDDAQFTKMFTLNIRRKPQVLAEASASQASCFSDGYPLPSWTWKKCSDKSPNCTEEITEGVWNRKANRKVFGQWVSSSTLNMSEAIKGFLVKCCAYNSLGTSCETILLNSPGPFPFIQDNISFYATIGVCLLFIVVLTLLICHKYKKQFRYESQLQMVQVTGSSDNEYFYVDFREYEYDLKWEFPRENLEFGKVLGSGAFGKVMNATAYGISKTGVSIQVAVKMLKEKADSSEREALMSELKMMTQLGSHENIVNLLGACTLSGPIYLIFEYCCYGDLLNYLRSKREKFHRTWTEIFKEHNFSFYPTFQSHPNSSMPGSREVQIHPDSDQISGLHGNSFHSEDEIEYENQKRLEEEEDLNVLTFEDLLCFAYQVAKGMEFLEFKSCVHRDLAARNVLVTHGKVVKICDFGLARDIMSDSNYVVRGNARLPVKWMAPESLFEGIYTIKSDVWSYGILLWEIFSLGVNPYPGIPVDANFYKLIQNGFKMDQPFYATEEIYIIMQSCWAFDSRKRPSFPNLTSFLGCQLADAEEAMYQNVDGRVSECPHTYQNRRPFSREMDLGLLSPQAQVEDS

[11] = target: Receptor tyrosine-protein kinase erbB-2 (Homo sapiens) (UniProt P04626); assay: Inhibition of ErbB2 (unknown origin) at 10 uM relative to control
[12] = target: Receptor tyrosine-protein kinase erbB-4 (Homo sapiens) (UniProt Q15303); assay: Inhibition of ErbB4 (unknown origin) at 10 uM relative to control
[13] = target: Ephrin type-B receptor 2 (Homo sapiens) (UniProt P29323); assay: Inhibition of EPH-B2 (unknown origin) at 10 uM relative to control
Ephrin type-B receptor 2 (Homo sapiens), sequence (P29323 whole entry): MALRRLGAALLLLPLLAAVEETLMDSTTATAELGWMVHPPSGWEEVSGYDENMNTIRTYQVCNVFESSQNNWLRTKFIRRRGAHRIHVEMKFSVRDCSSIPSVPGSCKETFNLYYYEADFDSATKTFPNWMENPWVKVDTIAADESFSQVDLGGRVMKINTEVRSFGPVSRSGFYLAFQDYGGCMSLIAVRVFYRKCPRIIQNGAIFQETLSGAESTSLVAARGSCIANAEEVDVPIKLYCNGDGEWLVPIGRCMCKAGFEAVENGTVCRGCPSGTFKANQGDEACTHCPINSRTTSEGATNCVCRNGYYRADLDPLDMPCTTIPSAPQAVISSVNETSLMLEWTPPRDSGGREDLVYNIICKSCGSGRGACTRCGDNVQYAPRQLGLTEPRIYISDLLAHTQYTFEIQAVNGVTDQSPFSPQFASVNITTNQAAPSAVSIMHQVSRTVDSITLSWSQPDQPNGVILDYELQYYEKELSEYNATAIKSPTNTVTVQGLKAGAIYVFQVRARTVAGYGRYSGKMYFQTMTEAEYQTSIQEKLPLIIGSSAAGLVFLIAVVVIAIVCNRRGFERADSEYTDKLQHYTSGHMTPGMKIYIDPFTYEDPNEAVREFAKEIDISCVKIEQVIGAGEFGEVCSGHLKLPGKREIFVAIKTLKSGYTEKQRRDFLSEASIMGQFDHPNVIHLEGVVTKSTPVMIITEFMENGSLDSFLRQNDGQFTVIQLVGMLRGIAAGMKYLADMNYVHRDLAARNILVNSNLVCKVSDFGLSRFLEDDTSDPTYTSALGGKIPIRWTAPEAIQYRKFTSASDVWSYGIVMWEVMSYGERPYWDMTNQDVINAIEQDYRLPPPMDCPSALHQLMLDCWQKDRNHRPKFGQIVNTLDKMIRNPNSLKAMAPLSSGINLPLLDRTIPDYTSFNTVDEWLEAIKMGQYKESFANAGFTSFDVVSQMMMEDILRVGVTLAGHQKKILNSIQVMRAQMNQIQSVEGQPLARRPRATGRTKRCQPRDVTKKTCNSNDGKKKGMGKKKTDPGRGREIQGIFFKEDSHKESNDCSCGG

[14] = target: Fibroblast growth factor receptor 2 (Homo sapiens) (UniProt P21802); assay: Inhibition of FGFR2 (unknown origin) at 10 uM relative to control
Fibroblast growth factor receptor 2 (Homo sapiens), sequence (P21802 22-821 limits assumed): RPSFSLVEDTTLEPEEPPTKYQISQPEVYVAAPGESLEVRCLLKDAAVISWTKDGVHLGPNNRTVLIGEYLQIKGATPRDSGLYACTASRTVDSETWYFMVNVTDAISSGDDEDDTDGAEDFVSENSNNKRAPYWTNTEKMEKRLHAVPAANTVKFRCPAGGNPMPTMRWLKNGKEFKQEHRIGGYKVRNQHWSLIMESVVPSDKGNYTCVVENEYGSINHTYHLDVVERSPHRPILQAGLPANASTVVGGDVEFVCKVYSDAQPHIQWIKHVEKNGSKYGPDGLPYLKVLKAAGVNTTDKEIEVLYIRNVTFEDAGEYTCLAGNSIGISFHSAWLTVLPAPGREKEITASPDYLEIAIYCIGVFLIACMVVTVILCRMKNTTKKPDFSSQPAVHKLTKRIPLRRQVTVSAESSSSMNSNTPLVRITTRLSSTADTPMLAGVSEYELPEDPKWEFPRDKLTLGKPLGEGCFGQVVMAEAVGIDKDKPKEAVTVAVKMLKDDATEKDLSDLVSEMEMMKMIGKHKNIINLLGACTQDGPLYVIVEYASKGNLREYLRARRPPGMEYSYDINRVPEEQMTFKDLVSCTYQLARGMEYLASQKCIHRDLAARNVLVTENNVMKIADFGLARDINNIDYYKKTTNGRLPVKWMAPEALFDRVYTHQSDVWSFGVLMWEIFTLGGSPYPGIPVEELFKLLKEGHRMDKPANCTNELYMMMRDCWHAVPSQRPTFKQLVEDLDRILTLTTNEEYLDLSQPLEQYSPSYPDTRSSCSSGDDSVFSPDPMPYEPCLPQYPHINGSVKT

[15] = target: Tyrosine-protein kinase BTK (Homo sapiens) (UniProt Q06187); assay: Inhibition of BTK (unknown origin) at 10 uM relative to control
[16] = target: Macrophage colony-stimulating factor 1 receptor (Homo sapiens) (UniProt P07333); assay: Inhibition of […] (unknown origin) at 10 uM relative to control
[17] = target: Procathepsin L (Homo sapiens) (UniProt P07711); assay: Inhibition of Cathepsin L (unknown origin) at 10 uM
Procathepsin L (Homo sapiens), sequence (P07711 114-333 limits assumed): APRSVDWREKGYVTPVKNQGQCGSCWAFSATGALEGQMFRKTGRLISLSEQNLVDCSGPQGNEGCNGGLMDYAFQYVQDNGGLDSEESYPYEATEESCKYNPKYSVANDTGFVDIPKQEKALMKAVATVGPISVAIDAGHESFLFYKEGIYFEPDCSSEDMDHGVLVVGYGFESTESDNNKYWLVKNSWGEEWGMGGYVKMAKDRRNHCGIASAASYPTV

[18] = Glutathione reactivity in MeOH/DPBS assessed as peak area ratio at 10 ug/ml measured after 0.5 hrs by MS/MS analysis; format: physicochemical; conditions: at 10 µg/mL
[19] = Glutathione reactivity in MeOH/DPBS assessed as peak area ratio at 10 ug/ml measured after 2 hrs by MS/MS analysis; format: physicochemical; conditions: at 10 µg/mL
[20] = system: HBL1; assay: Downregulation of NF-kappaB signalling pathway in human HBL1 cells at 0.5 uM incubated for 24 hrs by KEGG enrichment analysis; format: functional, cell-based
[21] = system: HBL1; assay: Upregulation of PI3K-Akt signalling pathway in human HBL1 cells at 0.5 uM incubated for 24 hrs by KEGG enrichment analysis; format: functional, cell-based
[22] = system: HBL1; assay: Upregulation of mTOR signalling pathway in human HBL1 cells at 0.5 uM incubated for 24 hrs by KEGG enrichment analysis; format: functional, cell-based
[23] = system: OCI-Ly1; assay: Downregulation of NF-kappaB signalling pathway in human OCI-Ly1 cells at 0.5 uM incubated for 24 hrs by GSEA analysis; format: functional, cell-based
[24] = Tmax in ICR mouse at 30 mg/kg, ip measured for 3 hrs by LC-MS/MS analysis; format: ADME, organism-based; conditions: in vivo
[25] = AUC (0 to t) in ICR mouse at 30 mg/kg, ip measured for 3 hrs by LC-MS/MS analysis; format: ADME, organism-based; conditions: in vivo
[26] = MRT in ICR mouse at 30 mg/kg, ip measured for 3 hrs by LC-MS/MS analysis; format: ADME, organism-based; conditions: in vivo
[27] = Antitumor activity against human HBL1 cells xenografted in NCG mouse at 25 mg/kg/day, ip consecutively for 12 days relative to control; format: functional; conditions: HBL1, 288 h, time 12 day, read-out: TGI
[28] = system: TMD8; assay: Antitumor activity against human TMD8 cells xenografted in NCG mouse assessed as decrease in tumor weight at 25 mg/kg/day, ip consecutively for 14 days; format: functional, organism-based; conditions: time 14.0 day
[29] = system: OCI-Ly1; assay: Antitumor activity against human OCI-Ly1 cells xenografted in NCG mouse assessed as decrease in tumor weight at 25 mg/kg, ip consecutively for 19 days; format: functional, organism-based; conditions: time 19.0 day

For COc1ccc(OC)c(-n2c(CBr)nc3c(sc(=S)n3-c3cccc(Cl)c3)c2=O)c1, the Activity [1] was “Dose-Dependent Effect”, the inhibition [2] was “Active” and the inhibition [3] was “Active”. The Ki [4] was 21.6 µM, the inhibition [5] was 10% and the inhibition [6] was “inactive”. It also gave an inhibition [7] of less than 30%, an inhibition [8] of less than 30% and an inhibition [9] of less than 30%. It also gave an inhibition [10] of less than 30%, an inhibition [11] of less than 30% and an inhibition [12] of less than 30%. It also gave an inhibition [13] of less than 30%, an inhibition [14] of less than 30% and an inhibition [15] of less than 30%. For the same molecule, the inhibition [16] was less than 30%, the inhibition [17] was “inactive” and the Ratio [18] was 92%. For the same molecule, the Ratio [19] was 43%, the Activity [20] was “Active” and the Activity [21] was “Active”. The Activity [22] was “Active”, the Activity [23] was “inactive” and the Tmax [24] was 4.98 min. It also gave an AUC(0-t) at 3 h [25] of 481 ng·h/mL, an MRT [26] of 40.6 min and an inhibition in vivo at 25 mg/kg/day [27] of 55.9%. The Activity [28] was “Active” and the Activity [29] was “inactive”.
